Common to all, as to type: cell-based
In assay [1] the test system is Human lung adenocarcinoma cell A549. Nature of the assay: CCK-8 cell proliferation assay, A549. The settings on record: A549 cells, CCK-8, 24 hrs with drug, OD 450 nm. The protocol: (§1) The effect of samples on the proliferation of human tumor cells in vitro was determined by CCK-8 cell proliferation assay.
(§2) The cells were assayed through a method including the following steps:
(§3) 1) The cells were digested, counted, and prepared into a cell suspension in a corresponding culture medium (Table 1) (5×10^4 cells/ml for CFPAC-1 and RPMI 8226, and 3.5×10^4 cells/ml for rest cells). The cell suspension was added to each well of a 96-well plate in 100 μl well.
(§4) 2) Then the 96-well plate was incubated for 24 hrs in an incubator at 37° C. and 5% CO2.
(§5) 3) The drug was diluted with the culture medium to the required working concentration. 100 μl of the corresponding drug containing medium was added to each well. A negative control group (added with drug-free culture medium) was also set.
(§6) 4) Then the 96-well plate was incubated for 24 hrs in an incubator at 37° C. and 5% CO2.
(§7) 5) The 96-well plate was stained with CCK-8, and The OD value was determined at λ=450 nm.
(§8) a) 10 μl of CCK-8 was added to each well, and incubated in the incubator for another 2-3 hrs.
(§9) b) The content was mixed uniformly by shaking gently on a shaker for 10 min, and the bubbles in the 96-well plate were removed.
(§10) 6) The inhibition rate in each group was calculated.
Background: Formazan colour is commonly taken as a measure of viable cells.

Assay [2] has as its system Human hepatoma cell HepG2. Nature of the assay: CCK-8 cell proliferation assay, HepG2. Particulars: HepG2 cells, CCK-8, 24 hrs with drug, OD 450 nm. As to the method: as §1, §2, §3, §4, §5, §6, §7, §8, §9, §10
The test system of assay [3] is Human esophageal cancer cell TE-1. Nature of the assay: CCK-8 cell proliferation assay, TE-1. Particulars: TE-1 cells, CCK-8, 24 hrs with drug, OD 450 nm. The protocol: as §1, §2, §3, §4, §5, §6, §7, §8, §9, §10
Assay [4] deals with Human gastric cancer cell MKN45. Kind of assay: CCK-8 cell proliferation assay, MKN-45. The settings on record: MKN-45 cells, CCK-8, 24 hrs with drug, OD 450 nm. As to the method:
as §1, §2, §3, §4, §5, §6, §7, §8, §9, §10

Assay [5] relates to Human colon cancer cell HCT-116. Nature of the assay: CCK-8 cell proliferation assay, HCT116. The settings on record: HCT116 cells, CCK-8, 24 hrs with drug, OD 450 nm. The protocol:
as §1, §2, §3, §4, §5, §6, §7, §8, §9, §10

The subject of assay [6] is Human multiple myeloma cell RPMI 8226. Kind of assay: CCK-8 cell proliferation assay, RPMI8226. The settings on record: RPMI8226 cells, CCK-8, 24 hrs with drug, OD 450 nm. The protocol: as §1, §2, §3, §4, §5, §6, §7, §8, §9, §10
For assay [7], the system named is Human pancreatic cancer cell CFPAC-1. Kind of assay: CCK-8 cell proliferation assay, CFPAC-1. The settings on record: CFPAC-1 cells, CCK-8, 24 hrs with drug, OD 450 nm. The protocol: as §1, §2, §3, §4, §5, §6, §7, §8, §9, §10

Broadly, the IC50 is the midpoint of a concentration-inhibition curve. For `O=C(NCCCCCC1CCN(C(=O)c2ccccc2)C1)Nc1ccncc1` (centres unmarked) [BSS-TP007, 1-(5-(1-(benzoyl)pyrrolidin-3-yl)pentyl)-2-(4-pyridinyl)urea], the IC50 in assay [1] was 31 nM; in assay [2], 69 nM; in assay [3], 76 nM; in assay [4], 57 nM; in assay [5], 33 nM; in assay [6], 17 nM. In addition, in assay [7], it took 28 nM to reach half-maximal inhibition (IC50).
Turning to `O=C(NCCCCCC1CCN(C(=O)c2cccs2)C1)Nc1ccncc1` (centres unmarked) [BSS-TP008, 1-(5-(1-(2-thienylformyl)pyrrolidin-3-yl)pentyl)-2-(4-pyridinyl)urea], the IC50 in assay [1] worked out at 55 nM; in assay [2], 51 nM; in assay [3] it was 58 nM; in assay [4] it was 43 nM; in assay [5] it was 77 nM; in assay [6], 33 nM. This compound gave an IC50 in assay [7] of 22 nM.
Consider `COc1cccc(OC)c1C(=O)N1CCC(CCCCCNC(=O)Nc2ccncc2)C1` (centres unmarked) [BSS-TP009, 1-(5-(1-(2,6-dimethoxybenzoyl)pyrrolidin-3-yl)pentyl)-2-(4-pyridinyl) urea], for which the IC50 in assay [1] is 29 nM; in assay [2], 46 nM; in assay [3], 49 nM; in assay [4], 63 nM; in assay [5], 21 nM; in assay [6] it was 26 nM. Moreover, the 50% inhibitory concentration (IC50) in assay [7] was found to be 39 nM.
In the case of `O=C(NCCCCCC1CCN(C(=O)c2ccc[nH]2)C1)Nc1ccncc1` (centres unmarked) [BSS-TP010, 1-(5-(1-(2-pyrrolylformyl)pyrrolidin-3-yl)pentyl)-2-(4-pyridinyl)urea], the IC50 was 36 nM in assay [1]; 41 nM in assay [2]; 42 nM in assay [3]; 34 nM in assay [4]; 25 nM in assay [5]; 20 nM in assay [6]. In addition, the IC50 in assay [7] was 38 nM.
For the compound `O=C(NCCCCCC1CCN(C(=O)c2ccco2)C1)Nc1ccncc1` (centres unmarked) [BSS-TP011, 1-(5-(1-(furoyl)pyrrolidin-3-yl)pentyl)-2-(4-pyridinyl)urea], the IC50 in assay [1] was 33 nM; in assay [2], 77 nM; in assay [3], 81 nM; in assay [4], 36 nM; in assay [5], 71 nM; in assay [6] it was 32 nM. Further, the midpoint of inhibition in assay [7], the IC50, lay at 29 nM.
Take `O=C(NCCCCCC1CCN(C(=O)C2CCCO2)C1)Nc1ccncc1` (centres unmarked) [BSS-TP012, 1-(5-(1-(2-tetrahydrofurylformyl)pyrrolidin-3-yl)pentyl)-2-(4-pyridinyl)urea]: the IC50 in assay [1] was 67 nM; in assay [2], 124 nM; in assay [3], 137 nM; in assay [4] it was 59 nM; in assay [5], 51 nM; in assay [6] it was 30 nM. Moreover, in assay [7], the IC50 was 38 nM.
For `O=C(NCCCCCC1CCN(C(=O)C2CCCS2)C1)Nc1ccncc1` (centres unmarked) [BSS-TP013, 1-(5-(1-(2-tetrahydrothienylformyl)pyrrolidin-3-yl)pentyl)-2-(4-pyridinyl)urea], the IC50 in assay [1] worked out at 81 nM; in assay [2], 133 nM; in assay [3] it was 98 nM; in assay [4], 73 nM; in assay [5], 68 nM; in assay [6], 45 nM. Further, the IC50 in assay [7] worked out at 41 nM.
Take `O=C(NCCCCCC1CCN(C(=O)C2CCCN2)C1)Nc1ccncc1` (centres unmarked) [BSS-TP014, 1-(5-(1-(2-pyrrolidinylformyl)pyrrolidin-3-yl)pentyl)-2-(4-pyridinyl)urea]: the IC50 came out at 117 nM in assay [1]; 89 nM in assay [2]; 82 nM in assay [3]; 91 nM in assay [4]; 62 nM in assay [5]; 50 nM in assay [6]. For the same compound, the IC50 in assay [7] turned out to be 51 nM.
`O=C(NCCCCCC1CCN(C(=O)c2ccccc2)C1)Nc1ccnc(F)c1` (centres unmarked) [BSS-TP015]: the IC50 came out at 31 nM in assay [1]; 39 nM in assay [2]; 57 nM in assay [3]; 33 nM in assay [4]; 43 nM in assay [5]; 22 nM in assay [6]. Moreover, half-maximal inhibition in assay [7] (IC50) was put at 28 nM.
Regarding `COc1cccc(OC)c1C(=O)N1CCC(CCCCCNC(=O)Nc2ccnc(F)c2)C1` (centres unmarked) [BSS-TP016], the IC50 in assay [1] was 30 nM; in assay [2], 59 nM; in assay [3], 55 nM; in assay [4], 46 nM; in assay [5], 41 nM; in assay [6], 30 nM. The same compound registered an IC50 in assay [7] of 32 nM.
Take `O=C(NCCCCCC1CCN(C(=O)c2ccc[nH]2)C1)Nc1ccnc(F)c1` (centres unmarked) [BSS-TP017]: the IC50 came to 41 nM in assay [1]; 77 nM in assay [2]; 69 nM in assay [3]; 55 nM in assay [4]; 57 nM in assay [5]; 42 nM in assay [6]. For the same compound, the IC50 in assay [7] is 41 nM.
For `O=C(NCCCCCC1CCN(C(=O)c2ccco2)C1)Nc1ccnc(F)c1` (centres unmarked) [BSS-TP018], the IC50 in assay [1] stood at 38 nM; in assay [2], 61 nM; in assay [3] it was 88 nM; in assay [4], 39 nM; in assay [5], 51 nM; in assay [6], 38 nM. The compound also gave a 50% inhibitory concentration (IC50) in assay [7] of 33 nM.
Take `O=C(NCCCCCC1CCN(C(=O)c2cccs2)C1)Nc1ccnc(F)c1` (centres unmarked) [BSS-TP019]: the IC50 in assay [1] turned out to be 72 nM; in assay [2], 85 nM; in assay [3] it was 132 nM; in assay [4], 71 nM; in assay [5] it was 39 nM; in assay [6], 44 nM. The same compound displayed an IC50 in assay [7] of 49 nM.
Turning to `O=C(NCCCCCC1CCN(C(=O)C2CCCN2)C1)Nc1ccnc(F)c1` (centres unmarked) [BSS-TP020], the IC50 in assay [1] came to 93 nM; in assay [2], 49 nM; in assay [3], 91 nM; in assay [4], 52 nM; in assay [5], 47 nM; in assay [6], 33 nM. In addition, the midpoint of inhibition in assay [7], the IC50, lay at 34 nM.
Regarding `O=C(NCCCCCC1CCN(C(=O)c2ccccc2)C1)Nc1cc(F)nc(F)c1` (centres unmarked) [BSS-TP021], the concentration for half-maximal inhibition (IC50) is 33 nM in assay [1]; 42 nM in assay [2]; 65 nM in assay [3]; 65 nM in assay [4]; 77 nM in assay [5]; 42 nM in assay [6]. Further, in assay [7], half-maximal inhibition (IC50) was put at 31 nM.
Turning to `O=C(NCCCCCC1CCN(C(=O)c2ccccc2)C1)Nc1cccnc1` (centres unmarked) [BSS-TP023, 1-(5-(1-(benzoyl)pyrrolidin-3-yl)pentyl)-2-(3-pyridinyl)urea], the IC50 is 53 nM in assay [1]; 72 nM in assay [2]; 102 nM in assay [3]; 76 nM in assay [4]; 69 nM in assay [5]; 42 nM in assay [6]. For the same compound, the IC50 in assay [7] was 46 nM.
`O=C(NCCCCCC1CCN(C(=O)c2cccs2)C1)Nc1cccnc1` (centres unmarked) [BSS-TP024, 1-(5-(1-(2-thienylformyl)pyrrolidin-3-yl)pentyl)-2-(3-pyridinyl)urea]: the IC50 in assay [1] was determined as 59 nM; in assay [2], 74 nM; in assay [3], 111 nM; in assay [4] it was 81 nM; in assay [5], 73 nM; in assay [6], 49 nM. This compound also displayed an IC50 in assay [7] of 39 nM.
On to `O=C(NCCCCCC1CCN(C(=O)c2cc3ccccc3[nH]2)C1)Nc1ccncc1` (centres unmarked) [BSS-TP025, 1-(5-(1-(2-indolylformyl)pyrrolidin-3-yl)pentyl)-2-(4-pyridinyl)urea], for which the IC50 in assay [1] amounted to 62 nM; in assay [2], 77 nM; in assay [3], 65 nM; in assay [4], 53 nM; in assay [5] it was 54 nM; in assay [6], 40 nM. This compound showed an IC50 in assay [7] of 37 nM.
Take `O=C(NCCCCCC1CCN(C(=O)c2cc3ccccc3o2)C1)Nc1ccncc1` (centres unmarked) [BSS-TP026, 1-(5-(1-(2-benzofurylformyl)pyrrolidin-3-yl)pentyl)-2-(4-pyridinyl)urea]: the IC50 in assay [1] came out at 69 nM; in assay [2], 83 nM; in assay [3], 72 nM; in assay [4] it was 71 nM; in assay [5] it was 92 nM; in assay [6] it was 51 nM. In addition, the IC50 in assay [7] amounted to 42 nM.
Regarding `O=C(NCCCCCC1CCN(C(=O)C2Cc3ccccc3O2)C1)Nc1ccncc1` (centres unmarked) [BSS-TP027, 1-(5-(1-(2-benzotetrahydrofurylformyl)pyrrolidin-3-yl)pentyl)-2-(4-pyridinyl)urea], the IC50 in assay [1] turned out to be 88 nM; in assay [2], 102 nM; in assay [3], 93 nM; in assay [4] it was 65 nM; in assay [5], 92 nM; in assay [6], 55 nM. In assay [7], this compound yielded an IC50 of 59 nM.

(Values after patent US12291515B2, “Pyrrolidine derivative and use thereof” (Rushi Biotech (Hangzhou) Co., Ltd, priority 2021, dated 2025).)
